# Reference: patent publication US6015829A, “1-phenylpyrazole compounds and medicinal application thereof” (Yoshitomi Pharmaceutical Industries, ltd., priority 1996, dated 2000)
# Test system: uric acid value of mouse serum
# Assay: Lowering of Uric Acid Value of Mouse Serum
# Assay type: in vivo
# Details: male ICR mice, 0.3 mg/kg into the stomach
# Experimental: Lowering of Uric Acid Value of Mouse Serum
# A sample suspended in 0.5% aqueous hydroxypropyl methyl cellulose (HPMC) solution was forcibly administered into the stomach of 4 to 6 week-old male ICR mice (4 per group) in a dose of 0.3 mg/kg using an oral sound probe. At 2 and 6 hours after the administration of the sample, mice were anesthetized with halothane. Blood samples were taken from both carotid arteries and the mice were exsanguinated. The blood was stood at room temperature for 20-30 minutes and centrifuged at 2000×g for 15 minutes to give serum. The uric acid value was measured using a uric acid measurement kit (manufactured by Wako Pure Chemicals Co.) by phosphotungstic acid method. The obtained values were applied to the following formula to give uric acid value decrease percentage at 2 and 6 hours after the administration of the sample.
# Uric acid value decrease (%)=(1-average uric acid value of group administered with sample/average uric acid value of group administered with HPMC)×100
smiles,measurement,setting,value
Oc1ncnc2[nH]ncc12 [allopurinol],Uric acid value decrease (%) at 2 hours,2 hours after administration,33%
same,Uric acid value decrease (%) at 6 hours,6 hours after administration,14%
